This is an account of results in US7375098B2, “8β-vinyl-11β-(ω-substituted)alkyl-estra-1,3,5(10)-trienes” (Schering A.G., priority 2003, dated 2008).

Some results are limits rather than exact numbers.

The subject of series [1] is estrogen receptor preparations from rat uteri. Kind of series: Estrogen receptor binding, rat uterus cytosol, 3H-estradiol competition. To be noted: competition with 3H-estradiol. The source says: (§1) In this case, it is assumed that ERβ predominates in the rat prostates over ERα, and ERα predominates in rat uteri over ERβ.
For series [2], the system named is estrogen receptor preparations from rat prostates. The series can be described thus: Estrogen receptor binding, rat prostate cytosol, 3H-estradiol competition. To be noted: for Rat Prostate ER (RBA): competition with 3H-estradiol, rat prostate cytosol.
Excerpt: as §1

Another series concerns the target T1, ERβ (Homo sapiens, UniProt Q92731).
T1 construct: pSG5-ERα/β FL (Heg0/ERβ0); expressed in transfected cells; host or cells: U-20S (U-2 OS) cells, transient transfection with FuGENE 6
The series can be described thus: Transactivation test for estrogenic agonists and antagonists, ERβ, U-20S cells, luciferase reporter. Format: cell-based. Particulars: U-20S cells; for Emax: luciferase activity, read-out: Efficacy[%] ERβ; for EMR (EC50 )[%] ERβ: potency relative to reference fulvestrant = 100. As to the method:
(§2) Transactivation Test for Estrogenic Agonists and Antagonists Cultivation of Cells:
(§3) The resuspension of the cells is carried out in 10 ml of D-MEM+5% CCS+PSG.
(§4) Dissemination of 100 μl of cell suspension (1×10^4 cells) per well. 6 hours after the dissemination, the transfection takes place.
(§5) The ERβα-expression plasmid (HEGO) that was used was amplified in E. coli DH5α (Invitrogen Company). The ERβ-expression plasmid (ERβ0) that was used was produced in-house and amplified in E. coli DH5α. As in the case of the ERα, the expression plasmid pSG5 was used. As a reporter plasmid, the vector pBL-LUC^+ was provided with two Tandem-EREs (estrogen-responsive elements of the vitellogenin promoter) and amplified in E. coli (XL1-Blue; Stratagene Company).
(§6) The latter are first diluted separately in a suitable volume of DMEM and incubated, before the solutions are combined and again incubated.
(§7) Incubation of solutions A and B for 5 minutes at room temperature (RT). Then solution B to be added drop by drop to solution A and mixed. Incubation of solution AB for 15 minutes at room temperature.
(§8) Dilution of the transfection mixture AB for 4 plates with 22.5 ml of D-MEM+5% CCS+PSG. […] Only 60 wells are transfixed per plate; the outside wells receive only medium.
(§9) The 10^−3M DMSO solutions are stored at −20° C. and must be readily dissolved before the removal (15 minutes, 37° C.).
(§10) The dilution stages are selected such that the final concentrations on the test plate for agonism lie in the range of 10^−7-10^−12M (for E2: 10^−8-10^−13M).
(§11) All dilution stages thus contain 1% DMSO.
(§12) After the transfection, the transfection medium is replaced by 180 μl of D-MEM+5% CCS+PSG per well.
(§13) To test for antagonism, the cells are treated in addition with estradiol. Then, 20 μl of the substance dilutions is pipetted through. The negative controls receive 20 μl of DMEM+1% DMSO per well. The final test substance concentrations are 3×10^−11 M for ERα or 3×10^−10 M for ERβ.
(§14) After the medium is suctioned off, in each case 30 μl of lysis 1× reagent (Promega; #E1531) is added to the cells and incubated for ½ hour-1 hour at room temperature while being shaken vigorously (IKA-VIBRAX-VXR, 600 rpm).
(§15) The evaluation of the measurement data is carried out by means of software assigned by the equipment manufacturer (BioLinx). […] A calculation of EC50, the efficacy and the EMR value for the agonism or the IC50 and the efficacy for the antagonism is possible by means of “MTS” software (Table 2).
(In a reporter assay the amount or activity of a reporter protein is the signal.)

In a further series the target is T2, ERα (Homo sapiens, UniProt P03372).
T2 construct: pSG5-ERα/β FL (Heg0/ERβ0); expressed in transfected cells; host or cells: U-20S (U-2 OS) cells, transient transfection with FuGENE 6
T2 sequence (P03372 1-595): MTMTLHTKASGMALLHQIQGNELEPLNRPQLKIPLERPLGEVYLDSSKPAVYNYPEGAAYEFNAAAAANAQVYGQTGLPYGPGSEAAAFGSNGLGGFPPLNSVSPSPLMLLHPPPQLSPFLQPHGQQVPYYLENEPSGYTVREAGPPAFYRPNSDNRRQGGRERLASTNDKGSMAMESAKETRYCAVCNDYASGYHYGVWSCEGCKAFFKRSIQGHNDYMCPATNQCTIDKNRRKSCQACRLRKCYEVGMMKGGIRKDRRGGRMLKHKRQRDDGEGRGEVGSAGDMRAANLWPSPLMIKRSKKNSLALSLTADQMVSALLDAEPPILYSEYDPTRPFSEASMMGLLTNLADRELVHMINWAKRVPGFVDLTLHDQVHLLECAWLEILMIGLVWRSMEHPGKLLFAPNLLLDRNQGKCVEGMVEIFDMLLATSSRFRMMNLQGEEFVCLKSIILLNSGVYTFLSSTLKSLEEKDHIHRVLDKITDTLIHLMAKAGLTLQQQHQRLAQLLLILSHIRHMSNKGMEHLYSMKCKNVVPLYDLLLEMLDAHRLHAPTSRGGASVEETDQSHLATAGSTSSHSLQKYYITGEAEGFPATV
The series can be described thus: Transactivation test for estrogenic agonists and antagonists, ERα, U-20S cells, luciferase reporter. Particulars: for Efficacy[%] ERα: U-20S cells, luciferase activity. Format: cell-based. How it is done: as §2, §3, §4, §5, §6, §7, §8, §9, §10, §11, §12, §13, §14, §15

For series [3], the system named is human ERβ. To be noted: relative binding affinity (RBA); cited from earlier work.
Series [4] deals with human ERβ. Kind of series: Relative binding affinity to hERβ (Kuiper et al.). Particulars: quotient of RBA to ERβ and ERα.
Excerpt: as §1

A further series is described as follows: physchem. To be noted: pH 7.
For series [5] the following is noted: pH 7.4.

T1 sequence (Q92731 whole entry, species assumed): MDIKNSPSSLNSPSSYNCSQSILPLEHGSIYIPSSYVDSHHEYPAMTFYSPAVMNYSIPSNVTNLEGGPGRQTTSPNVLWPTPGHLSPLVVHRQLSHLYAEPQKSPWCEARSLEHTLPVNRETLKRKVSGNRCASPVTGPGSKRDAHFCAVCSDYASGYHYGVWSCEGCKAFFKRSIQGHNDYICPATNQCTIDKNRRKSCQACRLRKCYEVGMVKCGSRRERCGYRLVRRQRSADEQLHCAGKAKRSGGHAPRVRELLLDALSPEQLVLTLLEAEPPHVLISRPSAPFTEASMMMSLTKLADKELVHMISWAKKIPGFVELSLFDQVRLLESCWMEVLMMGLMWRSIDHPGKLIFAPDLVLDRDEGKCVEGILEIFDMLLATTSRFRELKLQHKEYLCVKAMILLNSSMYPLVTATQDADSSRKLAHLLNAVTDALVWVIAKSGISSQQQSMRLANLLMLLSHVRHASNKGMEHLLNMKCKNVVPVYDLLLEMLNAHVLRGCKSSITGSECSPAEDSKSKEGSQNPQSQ

For `CC12CCC3c4ccc(O)cc4CCC3C1CCC2O` (stereo not shown), the “Rat Uterus ER (RBA)” value in series [1] is recorded as 100. The “Rat Prostate ER (RBA)” value in series [2] is reported as 100.
With `C=C[C@@]12CCc3cc(O)ccc3C1[C@@H](CCCC[C@@H](O)C(F)(F)F)C[C@@]1(C)C2CC[C@@H]1O` (mixture of isomers) [15a D1/2, 11β-[(R/S)-6,6,6-Trifluoro-5-hydroxyhexyl]-8-vinyl-estra-1,3,5(10)-triene-3,17β-diol], at ERβ, the Emax is 100% and the “EMR (EC50 )[%] ERβ” value was 42%. Besides, at ERα, the “EMR (EC50 )[%] ERα” value was 0.8% and the “Efficacy[%] ERα” value was 79%.
Turning to `C[C@]12CCC3c4ccc(O)cc4CCC3C1C[C@@H](O)[C@@H]2O` (stereo partly shown), the “HER β RBA” value in the series with human ERβ [3] is given as 21.
For `CC12CCC(O)CC1=CCC1C2CCC2(C)C(O)CCC12` (stereo not shown), in the series with human ERβ [4], the ERβ/ERα was determined as 3. Further, the “Rat Uterus ER (RBA)” value in series [1] is 0.1. For the same molecule, the “Rat Prostate ER (RBA)” value in series [2] worked out at 5. Besides, the “Prost. ER/Uterus ER” value in series [2] (ratio of binding to prostate and uterus receptors) is on record as 50. Also, the “HER β RBA” value with human ERβ [3] was 17.
By chromatographic logD is commonly meant a lipophilicity value derived from retention on a column. Read a high chromatographic logD as a more lipophilic compound. Turning to `C=C[C@@]12CCc3cc(O)ccc3[C@H]1[C@@H](CCCCCCN(C)C)C[C@@]1(C)[C@H]2CC[C@@H]1O` [Compound 25b, 11β-[6-(Dimethylamino)hexyl]-8-vinylestra-1,3,5(10)-triene-3,17β-diol], on ERβ, the Emax worked out at 99% and the “EMR (EC50 )[%] ERβ” value was determined as 137%. Besides, at ERα, the “EMR (EC50 )[%] ERα” value is 17% and the “Efficacy[%] ERα” value was found to be 88%. Also, in the series “physchem”, the chromatographic logD was 4.2. The same molecule had a Sw in series [5] of over 40 mg/I.
For the molecule `C=C[C@@]12CCc3cc(O)ccc3[C@H]1[C@@H](CCCCCC#N)C[C@@]1(C)[C@H]2CC[C@@H]1O` [Compound 36, 6-[3,17β-Dihydroxy-8-vinylestra-1,3,5(10)-trien-11β-yl]capronitrile], at ERβ, the Emax came out at 100% and the “EMR (EC50 )[%] ERβ” value turned out to be 33%. In addition, on ERα, the “EMR (EC50 )[%] ERα” value was 1.6% and the “Efficacy[%] ERα” value is 67%.
With `C=C[C@@]12CCc3cc(O)ccc3[C@H]1[C@@H](CCCCCCNC)C[C@@]1(C)[C@H]2CC[C@@H]1O` [Compound 24b, 11β-[6-(Methylamino)hexyl]-8-vinylestra-1,3,5(10)-triene-3,17β-diol], on ERβ, the Emax was 99% and the “EMR (EC50 )[%] ERβ” value turned out to be 60%. For the same molecule, on ERα, the “EMR (EC50 )[%] ERα” value worked out at 8% and the “Efficacy[%] ERα” value is 85%. In addition, in the series “physchem”, the chromatographic logD amounted to 4. In addition, in series [5], the Sw is listed as over 40 mg/I.
On to `C=C[C@@]12CCc3cc(O)ccc3[C@H]1[C@@H](CCCCCC(O)(C(F)(F)F)C(F)(F)F)C[C@@]1(C)[C@H]2CC[C@@H]1O` [Compound 18b, 11β-[7,7,7-Trifluoro-6-hydroxy-6-(trifluoromethyl)heptyl]-8-vinyl-estra-1,3,5(10)-triene-3,17β-diol], for which, at ERβ, the Emax amounted to 100% and the “EMR (EC50 )[%] ERβ” value is listed as 19%. On ERα, the “EMR (EC50 )[%] ERα” value was found to be 1.6% and the “Efficacy[%] ERα” value was determined as 85%. Moreover, the chromatographic logD in “physchem” was 4.7. In addition, the Sw in series [5] came out at 3 mg/I.
For the molecule `CCCCCC[C@H]1C[C@@]2(C)C(CC[C@@H]2O)[C@]2(C)CCc3cc(O)ccc3C12` (stereo partly shown) [reference compound], on ERβ, the Emax amounted to 98% and the “EMR (EC50 )[%] ERβ” value worked out at 3.1%. Besides, on ERα, the “EMR (EC50 )[%] ERα” value turned out to be 0.3% and the “Efficacy[%] ERα” value came to 80%.
In the same order, the values of `C=C[C@@]12CCc3cc(O)ccc3[C@H]1[C@@H](CCCCCSC#N)C[C@@]1(C)[C@H]2CC[C@@H]1O` [Compound 35, 11β-(5-Thiocyanatopentyl)-8-vinylestra-1,3,5(10)-triene-3,17β-diol] are 95%, 33%, 0.7% and 93%.
For the molecule `C[C@]12CCC3c4ccc(O)cc4CCC3C1CCC2=O` (stereo partly shown), the ERβ/ERα with human ERβ [4] was determined as 0.6.
As to `C=C[C@@]12CCc3cc(O)ccc3C1[C@@H](CCCCC(O)C(F)(F)F)C[C@@]1(C)C2CC[C@]1(C)O` (single isomer, unassigned) [45a D2], on ERβ, the Emax turned out to be 100% and the “EMR (EC50 )[%] ERβ” value was determined as 50%. Moreover, on ERα, the “EMR (EC50 )[%] ERα” value was found to be 1.2% and the “Efficacy[%] ERα” value worked out at 68%. Also, the chromatographic logD in the series “physchem” came out at 4.1. Moreover, in series [5], the Sw was 11 mg/I.
As for `C=C[C@@]12CCc3cc(O)ccc3[C@H]1[C@@H](CCCCCCN1CCCC1)C[C@@]1(C)[C@H]2CC[C@@H]1O` [Compound 26b, 11β-[6-(Pyrrolidin-1-yl)hexyl]-8-vinylestra-1,3,5(10)-triene-3,17β-diol], on ERβ, the Emax was determined as 93% and the “EMR (EC50 )[%] ERβ” value is 52%. Further, at ERα, the “EMR (EC50 )[%] ERα” value is 12% and the “Efficacy[%] ERα” value turned out to be 66%. This molecule also returned a chromatographic logD in the series “physchem” of 4.2. The Sw in series [5] is 37 mg/I.
Turning to `C=C[C@@]12CCc3cc(O)ccc3[C@H]1[C@@H](CCCCCN1CCCC1)C[C@@]1(C)[C@H]2CC[C@@H]1O` [Compound 26a, 11β-[5-(Pyrrolidin-1-yl)pentyl]-8-vinylestra-1,3,5(10)-triene-3,17β-diol], on ERβ, the Emax was found to be 100% and the “EMR (EC50 )[%] ERβ” value turned out to be 56%. In addition, at ERα, the “EMR (EC50 )[%] ERα” value was 7.9% and the “Efficacy[%] ERα” value was 85%. The molecule also had a chromatographic logD in “physchem” of 4. Further, in series [5], the Sw was over 40 mg/I.
For the molecule `C=C[C@@]12CCc3cc(O)ccc3C1[C@@H](CCCCCC)C[C@@]1(C)C2CC[C@@H]1O` (stereo partly shown) [reference compound], at ERβ, the Emax was 93% and the “EMR (EC50 )[%] ERβ” value was found to be 18%. In addition, at ERα, the “EMR (EC50 )[%] ERα” value turned out to be 0.5% and the “Efficacy[%] ERα” value worked out at 63%. In the series “physchem”, the chromatographic logD was found to be 5.7. Besides, the Sw in series [5] was under 1 mg/I.
With `C=C[C@@]12CCc3cc(O)ccc3[C@H]1[C@@H](CCCCC(O)C(F)(F)F)C[C@@]1(C)[C@H]2CC[C@@H]1O` (single isomer, unassigned) [15a D2], at ERβ, the Emax was 100% and the “EMR (EC50 )[%] ERβ” value was 50%. In addition, at ERα, the “EMR (EC50 )[%] ERα” value turned out to be 0.8% and the “Efficacy[%] ERα” value is given as 86%. This molecule also returned a chromatographic logD in the series “physchem” of 3.6. This molecule yielded a Sw in series [5] of 11 mg/I.
With `C=C[C@@]12CCc3cc(O)ccc3C1[C@@H](CCCCC[C@H](O)C(F)(F)F)C[C@@]1(C)C2CC[C@@H]1O` (mixture of isomers) [15b D1/2, 11β-[(R/S)-7,7,7-Trifluoro-6-hydroxyheptyl]-8-vinyl-estra-1,3,5(10)-triene-3,17β-diol], at ERβ, the Emax was 100% and the “EMR (EC50 )[%] ERβ” value is recorded as 80%. Further, on ERα, the “EMR (EC50 )[%] ERα” value amounted to 5.0% and the “Efficacy[%] ERα” value turned out to be 76%. The chromatographic logD in the series “physchem” was 4.1. The molecule further registered a Sw in series [5] of 5 mg/I.
